Results reported in US7462598B2, “Antimicrobial theta defensins, analogs thereof, and methods of use” (priority 2002, dated 2008).
Bridge positions count the residues as written; N and C are the ends. Peptide text beside a SMILES is read from it.

Legend:
[1] = tested on: E. coli ML35; assay: Cell-suspension microbicidal assay (MMC); assay type: cell-based, Escherichia coli; conditions: for MMC, E. coli: lowest concentration that reduced cell viability by 99.9%, 10 mM PIPES, 5 mM glucose, pH 7.4, 2 h 37° C.; for fold higher potency against E. coli than the peptide acid analog: carboxamide versus C-terminal acid of the same acyclic θ-defensin
Protocol: (§1) To test microbicidal activities, the activities of each peptide against S. aureus 502a, E. coli ML35, and C. albicans 16820 were assessed essentially as described in Example I with modifications to allow for simultaneous analysis of all twenty peptides. Briefly, two-fold serial dilutions of each peptide (in 0.01% acetic acid 0.062-8.0 μg/ml final concentrations) were mixed with 10 mM PIPES, pH 7.4, containing 5 mM glucose in sterile polystyrene 96-well plates (Corning, N.Y.). Aliquots of log-phase bacteria or yeast were added to a 2×10^6 CFU/ml final density as determined by A620. After 2 h incubation at 37° C., 15 μl of the incubation mixture was removed and serially diluted ten-fold from 1:10 to 1:10^6 in trypticase soy broth (bacteria) or Sabaraud dextrose broth (C. albicans). The diluted cell suspensions were grown 24-48 h at 37° C. until cell pellets were visible. Microbicidal activity was determined as absence of growth and was correlated to CFU/ml in control experiments where activity was determined in parallel by colony counting (see Example I). Absence of growth at the 1:10^3 dilution is equivalent to a 3-log reduction in microbial viability.
(§2) The microbicidal activities of each peptide against E. coli ML35, S. aureus 502a, and C. albicans 16820 were determined with cell-suspension microbicidal assays in 96-well plates (see Example II). Briefly, log-phase cells (2×10^6 CFU/ml final) were incubated with increasing concentrations of peptides (0-8 μg/ml final) in 50 μl of 10 mM PIPES, 5 mM glucose, pH 7.4, for 2 h at 37° C. Incubation mixtures were diluted 1:10 to 1:10^6 with trypticase-soy broth (bacteria) or Sabaraud dextrose broth (fungi) and incubated at 37° C. for 24-48 h until cell pellets were visible. Microbicidal activities (confirmed in control experiments as described in Example II) were determined as the absence of a cell pellet in the various dilutions. Peptide concentrations that caused ≧99.9% killing (absence of a cell pellet at 1:10^3 dilution) were taken as the minimum microbicidal concentrations (MMC).

[2] = tested on: S. aureus 502a; assay: Cell-suspension microbicidal assay (MMC); assay type: cell-based, Staphylococcus aureus; conditions: for MMC, S. aureus: lowest concentration that reduced cell viability by 99.9%, 10 mM PIPES, 5 mM glucose, pH 7.4, 2 h 37° C.; for fold reduction of staphylocidal potency relative to the peptide acid analog: carboxamide versus C-terminal acid of the same acyclic θ-defensin
Protocol: as §1, §2

[3] = tested on: S. aureus 502a, E. coli ML35, and C. albicans 16820; assay: Cell-suspension microbicidal assay, statements across the test organisms (lowest MMC, overall ranges); assay type: cell-based; conditions: peptide concentration that kill 99.9% of either S. aureus, E. coli, or C. albicans; lowest MMC value
Protocol: as §1, §2
(§3) A selectivity index (SI=H/M) was calculated as a ratio of a peptide concentration (μg/ml) that causes 3% hemolysis (H) obtained from a dose-dependent hemolysis plot over 0.3 to 3 μg/ml of each peptide in PBS and the lowest MMC value (M) for any of the three test microorganisms (see Example II; Table 2).

[4] = tested on: C. albicans 16820; assay: Cell-suspension microbicidal assay (MMC); assay type: cell-based, Candida albicans; conditions: for fold lower candidacidal potency than native PG-1: from MMC, Table 2; for MMC, C. albicans: lowest concentration that reduced cell viability by 99.9%, 10 mM PIPES, 5 mM glucose, pH 7.4, 2 h 37° C.; for fold higher potency against C. albicans than the peptide acid analog: carboxamide versus C-terminal acid of the same acyclic θ-defensin
Protocol: as §1, §2

[5] = tested on: human erythrocytes; assay: Hemolysis assay; assay type: cell-based
Protocol: For the hemolysis assay, the hemolytic activity of each peptide was determined by the method of Tam et al. (Tam et al., Eur. J. Biochem. 267:3289-3300 (2000)). Blood was obtained from a healthy donor in accordance to a protocol approved by the Institutional Review Board. Normal human serum was prepared from the same individual and stored at −20° C. Red blood cells (RBC) were prepared from blood collected in EDTA. RBC were harvested at 234×g for 10 min, 22° C., washed four times with 10 mM sodium phosphate, 150 mM NaCl, pH 7.4 (PBS), containing 4 mM EDTA and resuspended in PBS without EDTA. Peptides dissolved in 10 μl 0.01% HOAc were diluted with PBS to final concentrations of 0.3-100 μg/ml. RBC were added to a 2% final density in 100 μl. Incubation mixtures were also prepared with 10% serum. After 1 h incubation at 37° C., the cell suspensions were centrifuged at 234×g for 10 min, 22° C. Fifty-μl samples of the supernatants were removed, and the absorbance at 405 nm (A) was measured. Hemolytic activity of each peptide was calculated relative to lysis by 1% NP-40 using the following formula:
as §3

[6] = tested on: E. coli ML35; assay: Membrane permeabilization assay (ONPG hydrolysis); assay type: cell-based, Escherichia coli; conditions: rates at 1 μg/ml concentration of each peptide
Protocol: For the membrane permeabilization assay, the permeabilization of bacterial cytoplasmic membranes was determined by measuring hydrolysis of o-nitrophenyl-β-D-galactcpyranoside (ONPG) in E. coli ML35 (Sitaram et al., FEBS Lett. 303:265-268 (1992); Lehrer et al.,. J. Immunol. Methods 108:153-158 (1988)). Peptides dissolved in 5 μl of 0.01% acetic acid were two-fold serially diluted with 10 mM PIPES, pH 7.4, containing 3 mM ONPG, to final peptide concentrations of 0-8.0 μg/ml. Log-phase bacteria, prepared in PIPES buffer as described for the microbicidal assay (see Example I), were added to 1×10^6 CFU/ml final density in a final volume of 90 μl. ONPG hydrolysis was measured at 405 nm for 60 min using a SpectraMAX 190 plate reader and SOFTmaxPRO 3.1 (Molecular Devices Corp., CA). […]

SMILES	MMC, E. coli [1] [µg/mL]	fold lower staphylocidal potency than native PG-1 ([2]; from MMC, Table 2) [fold]	MMC, S. aureus [2] [µg/mL]	M [3] [µg/mL]	fold lower candidacidal potency than native PG-1 [4] [fold]	MMC, C. albicans [4] [µg/mL]	hemolysis [5]	ONPG hydrolysis [6]	fold higher potency against E. coli than the peptide acid analog [1]	fold reduction of staphylocidal potency relative to the peptide acid analog [2]	fold higher potency against C. albicans than the peptide acid analog [4]	H ([5]; peptide concentration that causes 3% hemolysis, calculated from dose-dependent hemolysis plot over 0.3-3 μg/ml in PBS) [µg/mL]
CC(C)C[C@@H]1NC(=O)[C@H](CCCNC(=N)N)NC(=O)CNC(=O)CNC(=O)[C@H](CCCNC(=N)N)NC(=O)[C@H](CCCNC(=N)N)NC(=O)CNC(=O)[C@H](C(C)C)NC(=O)[C@@H]2CSSC[C@H](NC1=O)C(=O)N[C@@H](Cc1ccc(O)cc1)C(=O)N[C@H]1CSSC[C@H](NC(=O)[C@H](Cc3ccccc3)NC(=O)[C@H](CCCNC(=N)N)NC(=O)[C@H](CCCNC(=N)N)NC(=O)[C@H](CCCNC(=N)N)NC1=O)C(=O)N[C@@H](C(C)C)C(=O)N2 [cPG-1] (cyclo(GGRLCYCRRRFCVCVGRR); disulfide 5-14, 7-12)	1.0	5	2.0	1	3	2.5	40-50%	11.0 (A405/sec) · 10^−5				
CC(C)C[C@@H]1NC(=O)[C@@H]2CSSC[C@H](NC(=O)[C@H](CCCNC(=N)N)NC(=O)[C@@H](NC(=O)[C@@H](NC(=O)CN)C(C)C)CSSC[C@@H](C(=O)N[C@@H](CCCNC(=N)N)C(=O)N[C@@H](CCCNC(=N)N)C(N)=O)NC1=O)C(=O)N[C@@H](CC(C)C)C(=O)N[C@H]1CSSC[C@H](NC(=O)[C@H](C(C)C)NC(=O)CNC(=O)[C@H](CCCNC(=N)N)NC(=O)[C@H](CCCNC(=N)N)NC1=O)C(=O)N[C@@H](CCCNC(=N)N)C(=O)N2 [aRTD-3-NH] (H-GVCRCLCRRGVCRCLCRR-NH2; disulfide 3-16, 5-14, 7-12; N-terminus assumed)	1.0		4.5	0.75		0.8		9.7 (A405/sec) · 10^−5	2- to 4 fold	3 fold	2- to 4 fold	
CC[C@H](C)[C@@H]1NC(=O)[C@@H]2CSSC[C@H](NC(=O)[C@H](CCCNC(=N)N)NC(=O)[C@@H](NC(=O)[C@H](Cc3ccccc3)NC(=O)CN)CSSC[C@@H](C(=O)N[C@H](C(=O)N[C@@H](CCCNC(=N)N)C(N)=O)[C@@H](C)O)NC1=O)C(=O)N[C@@H](CC(C)C)C(=O)N[C@H]1CSSC[C@H](NC(=O)[C@H](C(C)C)NC(=O)CNC(=O)[C@H](CCCNC(=N)N)NC(=O)[C@H](CCCNC(=N)N)NC1=O)C(=O)N[C@@H](CCCNC(=N)N)C(=O)N2 [aRTD-1-NH] (H-GFCRCLCRRGVCRCICTR-NH2; disulfide 3-16, 5-14, 7-12; N-terminus assumed)	2.0		5.0	1		1.0		8.8 (A405/sec) · 10^−5	4 fold	no effect	4 fold	8.8
CC(C)[C@@H]1NC(=O)[C@@H]2CSSC[C@H](NC(=O)[C@H](CCCNC(=N)N)NC(=O)[C@@H]3CSSC[C@H](NC1=O)C(=O)N[C@@H](CCCNC(=N)N)C(=O)N[C@@H](CCCNC(=N)N)C(=O)NCC(=O)NCC(=O)N3)C(=O)N[C@@H](Cc1ccc(O)cc1)C(=O)N[C@H]1CSSC[C@H](NC(=O)[C@H](Cc3ccccc3)NC(=O)[C@H](CCCNC(=N)N)NC(=O)[C@H](CCCNC(=N)N)NC(=O)[C@H](CCCNC(=N)N)NC1=O)C(=O)N[C@@H](C(C)C)C(=O)N2 [3cys cPG-1] (cyclo(GGCRCYCRRRFCVCVCRR); disulfide 3-16, 5-14, 7-12)	1.3		0.5	0.5	3	2.5	5-6%	10.7 (A405/sec) · 10^−5				
